The structures appear in SMILES notation.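 Each compound was tested at five concentrations against cells in 96-well plates for 48 hours. The concentration for 50% growth inhibition is given as GI50.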 Activity calls are given as the source filed them. Cut-off read from the data, not from the text of the source: active = GI50 up to about 1.1 µM and inactive = higher.

Test in all cases: growth of human tumour cells (NCI), 48 h
The test system of test [1] is A498.
Test [2] has as its system A549.
For test [3], the system named is ACHN.
For test [4], the system named is CAKI-1.
In test [5] the test system is EKVX.
For test [6], the system named is HCC 2998.
For test [7], the system named is HCT-116.
In test [8] the test system is HL-60.
Test [9] concerns IGROV-1.
For test [10], the system named is MOLT-4.
For test [11], the system named is Malme-3M.
The test system of test [12] is NCI-H23.
For test [13], the system named is NCI-H460.
The subject of test [14] is NCI/ADR-RES.
Test [15] deals with OVCAR-5.
In test [16] the test system is PC-3.
The test system of test [17] is SF-539.
In test [18] the test system is T47D.
Test [19] relates to UACC-257.
Test [20] concerns UACC-62.

`Cc1cc(C)nc(NS(=O)(=O)c2ccc(Nc3nncc(=O)n3N)cc2)n1`: the GI50 in [1] is 45900 nM (inactive); in [2], 34800 nM (inactive); in test [3], 33700 nM (inactive); in [4], 16000 nM (inactive); in [5] it was 23100 nM (inactive); in [6], 30500 nM (inactive). Also, the GI50 in test [7] was 28200 nM (inactive); in test [8] it was 17400 nM (inactive); in test [9], 15100 nM (inactive); in test [10] it was 15500 nM (inactive); in [11] it was 19200 nM (inactive); in test [12] it was 14400 nM (inactive). Moreover, the GI50 in test [13] was 30100 nM (inactive); in test [14], 23600 nM (inactive); in [15], 18200 nM (inactive); in test [16], 21500 nM (inactive); in test [17], 31600 nM (inactive); in test [18], 16300 nM (inactive). For the same compound, the GI50 in test [19] and in test [20] was 19800 nM (inactive) throughout.

Regarding `CN(CCc1ccccn1)C(=S)N/N=C/c1ccccn1`, the GI50 in test [1] is 19.4 nM (active); in test [2], 285 nM (active); in test [3], 36.6 nM (active); in test [4] it was < 10 nM (active); in test [5], 102 nM (active); in test [6], 230 nM (active). Also, the GI50 in test [7] was < 10 nM (active); in [8], < 10 nM (active); in test [9] it was 18.4 nM (active); in test [10], < 10 nM (active); in test [11], 182 nM (active); in test [12], < 27.5 nM (active). The GI50 was 299 nM (active) in [13]; < 20.1 nM (active) in test [14]; 23.8 nM (active) in test [15]; 45.6 nM (active) in [16]; 93.5 nM (active) in [17]; < 10 nM (active) in [18]. For the same compound, the GI50 in [19] was < 21.3 nM (active); in [20], 195 nM (active).

Regarding `O=C1/C(=C/c2ccc(O)cc2)CCC1CNc1ccccc1` (stereo not given), the GI50 in test [1] is 17900 nM (inactive); in test [2] it was 17800 nM (inactive); in test [3], 12300 nM (inactive); in [4], 12500 nM (inactive); in test [5], 18300 nM (inactive); in test [6], 18800 nM (inactive). Besides, the GI50 is 5640 nM (inactive) in [7]; 1960 nM (inactive) in test [8]; 11300 nM (inactive) in test [9]; 1850 nM (inactive) in [10]; 15300 nM (inactive) in test [11]; 14300 nM (inactive) in test [12]. For the same compound, the GI50 in test [13] is 26300 nM (inactive); in test [14] it was 19000 nM (inactive); in [15] it was 17700 nM (inactive); in test [16] it was 11200 nM (inactive); in test [17], 16100 nM (inactive); in test [18], 10300 nM (inactive). Moreover, the GI50 is 16700 nM (inactive) in test [19] and 13100 nM (inactive) in test [20].

As to `C/C(=N\Nc1nc2ccccc2[nH]1)c1ncccn1`, the GI50 in test [1] was 85.1 nM (active); in [2], 68.2 nM (active); in test [3], < 23.2 nM (active); in test [4], < 22.4 nM (active); in test [5], 26 nM (active); in test [6] it was 721 nM (active). The GI50 in test [7] is 22.6 nM (active); in test [8], < 10 nM (active); in test [9], < 31 nM (active); in test [10] it was < 10 nM (active); in test [11] it was < 24.3 nM (active); in [12], 62.1 nM (active). Besides, the GI50 in [13] is 29.9 nM (active); in [14] it was 60.8 nM (active); in test [15], 735 nM (active); in test [16], 1920 nM (inactive); in [17] it was 17.2 nM (active); in test [18] it was 21.5 nM (active). Moreover, the results for the GI50 in test [19] and in [20] were 136 nM (active) and 69.3 nM (active), respectively.

As to `CC1=C(N2CC2)C(=O)c2nc3n(c2C1=O)CCC3OC(=O)CCl` (stereo not given), the GI50 in test [1] was 61 nM (active); in test [2], 59.3 nM (active); in test [3] it was 47 nM (active); in test [4] it was 61.5 nM (active); in test [5] it was 217 nM (active); in test [6], 39.5 nM (active). Also, the GI50 in test [7] was 41.8 nM (active); in test [8], 206 nM (active); in test [9], 190 nM (active); in test [10], 753 nM (active); in test [11], 45.3 nM (active); in test [12] it was 35.8 nM (active). For the same compound, the GI50 is 18.3 nM (active) in test [13]; 24.9 nM (active) in test [14]; 69.2 nM (active) in test [15]; 21.4 nM (active) in [16]; 56 nM (active) in [17]; 1110 nM (active) in [18]. Also, the GI50 was 88.3 nM (active) in test [19] and 35.6 nM (active) in [20].

`CO[C@H]1Nc2c(ccc(C)c2O)C(=O)N2C=C(/C=C/C(N)=O)C[C@@H]12` [ANTHRAMYCIN METHYL ETHER]: the GI50 in test [1] was 183 nM (active); in [2], 33.1 nM (active); in test [3], 18.1 nM (active); in [4] it was 47 nM (active); in test [5], 46.2 nM (active); in [6], 43.6 nM (active). The GI50 in test [7] is 38.2 nM (active); in [8], 43.6 nM (active); in [9], 35.8 nM (active); in test [10], 27.6 nM (active); in test [11], 26.1 nM (active); in test [12] it was 32.7 nM (active). Also, the GI50 is 32.2 nM (active) in test [13]; 31.5 nM (active) in [14]; 54.1 nM (active) in test [15]; 21.5 nM (active) in test [16]; 18.5 nM (active) in test [17]; 495 nM (active) in [18]. Also, the GI50 in test [19] is 59.6 nM (active); in [20], 15.1 nM (active).

The values above are taken from ChEMBL document CHEMBL1201862, “PubChem BioAssay data set” (2004).
